In patent US20220372542A1, “DETECTION OF ANALYTES BY PROTEIN SWITCHES” (priority 2019, published 2022):

Legend:
[1] = molecular target: T1, glucose dehydrogenase GDH-105 (control, backbone) (Bacillus subtilis, UniProt P12310, E198G/I165M/P194T); assay: warfarin inhibition of GDH sensor (FIGS. 9A and 9B); format: biochemical; details: 10, 30, 80, 180, and 300 uM warfarin; NAD+ 5 mM, glucose 1 mM, 33° C.
Method: (§1) Warfarin Sensor. Experimental GDH-105 and GDH-2016 glucose-responsive active areas were prepared using a single-layer active area system. The GDH was obtained from Codexis, Redwood City, Calif. The active area was coated onto a carbon working electrode in a single layer composition (Table 8). Following deposition of the active area, the active area was cured for three days at RT.
(§2) Experimental procedure. Testing of the GDH-105 and GDH-2016 sensors was conducted by immersing the electrode in a 100 mM PBS buffer solution at 33° C. NAD^+ (5 mM) supplied to a test beaker containing PBS buffer followed by the addition of glucose (1 mM).

[2] = molecular target: T2, glucose dehydrogenase protein switch GDH-2016 (Rd2bb), GDH-105 variant, SEQ ID NO: 11 (Bacillus subtilis, UniProt P12310, A159T/E170K/E96C/F155A/I165M/P194T/Q252L/V156S); assay: biochemical; details: read-out: inhibition at 300 uM warfarin
T2 construct: electrode sensor and screen
Method: as §1, with “Experimental” for “Warfarin Sensor. Experimental”
as §2

[3] = molecular target: T1, glucose dehydrogenase GDH-105 (control, backbone); assay: warfarin inhibition of evolved GDH sensors (Table 13); format: biochemical; details: NAD+ 10 mM, glucose 5 mM, 33° C.
Method: (§3) Evolved Warfarin sensors. GDH-105, GDH-2016, GDH-2025, GDH-2026, GDH-2027, and GDH-2028 glucose-responsive active areas were prepared using a single-layer active area system. The GDH was obtained from Codexis, Redwood City, Calif. The active area (0.33 mm^2) was coated onto a carbon working electrode in a single layer composition (Table 8). Following deposition of the active area, the active area was cured for three days at room temperature.
(§4) Experimental procedure. Testing of the GDH-105, GDH-2016, GDH-2025, GDH-2026, GDH-2027, and GDH-2028 sensors was conducted by immersing the electrode in a 100 mM PBS buffer solution at 33° C. NAD^+(10 mM) supplied to a test beaker containing PBS buffer followed by the addition of glucose (5 mM).

[4] = molecular target: glucose dehydrogenase protein switch GDH-2025 (Rd3bb), variant of GDH-2016, C96F, SEQ ID NO: 1 (Bacillus subtilis, UniProt P12310, A159T/E170K/E96F/F155A/I165M/P194T/Q252L/V156S); assay: as above; format: biochemical; details: NAD+ 10 mM, glucose 5 mM, 100 mM PBS, 33° C.
Method: as §3, §4

[5] = molecular target: glucose dehydrogenase protein switch GDH-2026, variant of GDH-2016, C96F; I141V, SEQ ID NO: 7 (Bacillus subtilis, UniProt P12310, A159T/E170K/E96F/F155A/I141V/I165M/P194T/Q252L/V156S); assay: as above; format: biochemical; details: NAD+ 10 mM, glucose 5 mM, 100 mM PBS, 33° C.
Method: as §3, §4

[6] = molecular target: glucose dehydrogenase protein switch GDH-2027, variant of GDH-2025, C96F; A173G, SEQ ID NO: 12 (Bacillus subtilis, UniProt P12310, A159T/A173G/E170K/E96F/F155A/I165M/P194T/Q252L/V156S); assay: as above; format: biochemical; details: NAD+ 10 mM, glucose 5 mM, 100 mM PBS, 33° C.
Method: as §3, §4

[7] = molecular target: glucose dehydrogenase protein switch GDH-2028 (Rd4bb), variant of GDH-2025, C96F; L252V, SEQ ID NO: 15 (Bacillus subtilis, UniProt P12310, A159T/E170K/E96F/F155A/I165M/P194T/Q252V/V156S); assay: as above; format: biochemical; details: NAD+ 10 mM, glucose 5 mM, 100 mM PBS, 33° C.
Method: as §3, §4

[8] = molecular target: T2, glucose dehydrogenase protein switch GDH-2016 (Rd2bb), GDH-105 variant, SEQ ID NO: 11; format: biochemical; details: warfarin 2.08 mM, pH 7.0, NADH kinetics at UV360
Method: (§5) Glucose dehydrogenase (GDH) variant libraries comprising GDH polypeptides developed using GDH-105 (Codexis, Redwood, Calif.) as a backbone were prepared. Approximately 2800 GDH variants were prepared. Glucose activity was determined by either NADH kinetic assay using a spectrophotometer set at UV 340 or UV 360 at various time intervals or by endpoint measurement of gluconic acid using RapidFire mass spectrometer.

[9] = molecular target: glucose dehydrogenase protein switch GDH-2004, GDH-105 variant (Bacillus subtilis, UniProt P12310); assay: screen of GDH variants for glucose activity against analytes; format: biochemical
Method: as §5

[10] = molecular target: glucose dehydrogenase protein switch GDH-2009, GDH-105 variant (Bacillus subtilis, UniProt P12310); assay: as above; format: biochemical
Method: as §5

[11] = molecular target: glucose dehydrogenase protein switch GDH-2013, GDH-105 variant (Bacillus subtilis, UniProt P12310); assay: as above; format: biochemical; details: warfarin 2.08 mM, pH 7.0, NADH kinetics at UV360
Method: as §5

[12] = molecular target: glucose dehydrogenase protein switch GDH-2005, GDH-105 variant (Bacillus subtilis, UniProt P12310); assay: as above; format: biochemical; details: cortisol 2.08 mM, pH 7.5, NADH kinetics at UV340
Method: as §5

[13] = molecular target: glucose dehydrogenase protein switch GDH-2007, GDH-105 variant (Bacillus subtilis, UniProt P12310); assay: as above; format: biochemical; details: methotrexate 5.42 mM, pH 7.0, gluconic acid by RapidFire MS
Method: as §5

[14] = molecular target: glucose dehydrogenase protein switch GDH-2008, GDH-105 variant (Bacillus subtilis, UniProt P12310); assay: as above; format: biochemical; details: methotrexate 5.42 mM, pH 7.0, gluconic acid by RapidFire MS
Method: as §5

[15] = molecular target: glucose dehydrogenase protein switch GDH-2010, GDH-105 variant (Bacillus subtilis, UniProt P12310); assay: as above; format: biochemical; details: methotrexate 5.42 mM, pH 7.0, gluconic acid by RapidFire MS
Method: as §5

[16] = warfarin 2.08 mM, pH 7.0, NADH kinetics at UV360
[17] = methotrexate 5.42 mM, pH 7.0, gluconic acid by RapidFire MS

CC(=O)CC(c1ccccc1)c1c(O)c2ccccc2oc1=O (stereo not shown) [Warfarin, warfarin]
inhibition of the sensor to increasing warfarin concentrations [1]: not affected
inhibition at 300 µM [2]: ~55%
GDH inhibition at 0.3 mM WF ([3]; 0.3 mM WF, 100 mM PBS): 5%
inhibition to increasing warfarin concentrations ([3]; 10, 30, 80, 180, and 300 uM warfarin): remained unaffected
GDH inhibition at 0.3 mM WF [4]: 79%
GDH inhibition at 0.3 mM WF [5]: 78%
GDH inhibition at 0.3 mM WF [6]: 79%
GDH inhibition at 0.3 mM WF [7]: 84%
Activate/Inhibit (glucose activity) [8]: Inhibit
Activate/Inhibit (glucose activity) [9, 16]: Inhibit
Activate/Inhibit (glucose activity) [10, 16]: Inhibit
Activate/Inhibit (glucose activity) [11]: Inhibit

C[C@]12CCC(=O)C=C1CC[C@@H]1[C@@H]2[C@@H](O)C[C@@]2(C)[C@H]1CC[C@]2(O)C(=O)CO [Cortisol]
Activate/Inhibit (glucose activity) ([9]; cortisol 2.08 mM, pH 7.5, NADH kinetics at UV340): Inhibit
Activate/Inhibit (glucose activity) [12]: Inhibit

CN(Cc1cnc2nc(N)nc(N)c2n1)c1ccc(C(=O)N[C@@H](CCC(=O)O)C(=O)O)cc1 [Methotrexate]
Activate/Inhibit (glucose activity) [9, 17]: Inhibit
Activate/Inhibit (glucose activity) [13]: Inhibit
Activate/Inhibit (glucose activity) [14]: Inhibit
Activate/Inhibit (glucose activity) [10, 17]: Inhibit
Activate/Inhibit (glucose activity) [15]: Inhibit
